assay: HPLC determination of degradation products in particles after SEDS processing; format: physicochemical
Method: High-Perfomance Liquid Chromatography (HPLC)
Identification and quantification of degradation products were determined using HPLC technique.
The amount of degradation products was calculated from the chromatograms as area-%. Thus, 0.2% area-procent means that the amount of degradation products was 0.2% of the initial weight of the substance.
Particles were prepared in a modified SEDS equipment (Bradford Particle Design Limited, UK) from a solution, containing substance(s).
The solution and the antisolvent were introduced into a coaxial nozzle, which was located inside a pressure vessel. Under controlled pressure and temperature conditions, the antisolvent extracts the solvent from the solution droplets. The concentration of the solute in the droplets is thereby increased, leading to rapid particle formation. The particles were collected in a vessel, while the antisolvent and the extracted solvent emerged through a back pressure regulator.
The nozzle used was a two component nozzle, with an opening of 0.2 mm in diameter. In the two component nozzle the supercritical fluid passes through the inner passage, while the solution passes through the outer passage.

Compared with `COc1ccc2[n-]c([S@@+]([O-])Cc3ncc(C)c(OC)c3C)nc2c1.COc1ccc2[n-]c([S@@+]([O-])Cc3ncc(C)c(OC)c3C)nc2c1.[Mg+2]` [Experiment 2-1a, (S)-omeprazole magnesium], `COc1ccc2[n-]c([S+]([O-])Cc3ncc(C)c(OC)c3C)nc2c1.COc1ccc2[n-]c([S+]([O-])Cc3ncc(C)c(OC)c3C)nc2c1.[Mg+2]` (stereo not shown) [Experiment 1-3b, Omeprazole magnesium] is lower in Degradation products: 2.1 a % for the first, 0.2 a % for the second.

First: COc1ccc2[n-]c([S@@+]([O-])Cc3ncc(C)c(OC)c3C)nc2c1.COc1ccc2[n-]c([S@@+]([O-])Cc3ncc(C)c(OC)c3C)nc2c1.[Mg+2] [Experiment 2-1b, (S)-omeprazole magnesium]
Second: COc1ccc2[n-]c([S+]([O-])Cc3ncc(C)c(OC)c3C)nc2c1.COc1ccc2[n-]c([S+]([O-])Cc3ncc(C)c(OC)c3C)nc2c1.[Mg+2] (stereo not shown) [Experiment 1-2b, Omeprazole magnesium]
The Degradation products of the first is higher: 0.3 a % for the first, 0.2 a % for the second.

With `COc1ccc2[n-]c([S+]([O-])Cc3ncc(C)c(OC)c3C)nc2c1.COc1ccc2[n-]c([S+]([O-])Cc3ncc(C)c(OC)c3C)nc2c1.[Mg+2]` (stereo not shown) [Experiment 1-3a, Omeprazole magnesium] the Degradation products was 0.4 a %.
Compound `COc1ccc2[n-]c([S+]([O-])Cc3ncc(C)c(OC)c3C)nc2c1.COc1ccc2[n-]c([S+]([O-])Cc3ncc(C)c(OC)c3C)nc2c1.[Mg+2]` (stereo not shown) [Experiment 1-1a, Omeprazole magnesium] has a Degradation products of 0.5 a %.
`COc1ccc2[n-]c([S+]([O-])Cc3ncc(C)c(OC)c3C)nc2c1.COc1ccc2[n-]c([S+]([O-])Cc3ncc(C)c(OC)c3C)nc2c1.[Mg+2]` (stereo not shown) [Experiment 1-4b, Omeprazole magnesium] showed a Degradation products of 0.1 a %.
Compound `COc1ccc2[n-]c([S+]([O-])Cc3ncc(C)c(OC)c3C)nc2c1.COc1ccc2[n-]c([S+]([O-])Cc3ncc(C)c(OC)c3C)nc2c1.[Mg+2]` (stereo not shown) [Experiment 1-1b, Omeprazole magnesium] has a Degradation products of 0.2 a %.

First: COc1ccc2[n-]c([S@@+]([O-])Cc3ncc(C)c(OC)c3C)nc2c1.COc1ccc2[n-]c([S@@+]([O-])Cc3ncc(C)c(OC)c3C)nc2c1.[Mg+2] [Experiment 2-1a, (S)-omeprazole magnesium]
Second: COc1ccc2[n-]c([S+]([O-])Cc3ncc(C)c(OC)c3C)nc2c1.COc1ccc2[n-]c([S+]([O-])Cc3ncc(C)c(OC)c3C)nc2c1.[Mg+2] (stereo not shown) [Experiment 1-3b, Omeprazole magnesium]
The “degradation products (HPLC)” value of the first is higher: 2.1 area % for the first, 0.2 area % for the second.

Going from `COc1ccc2[n-]c([S@@+]([O-])Cc3ncc(C)c(OC)c3C)nc2c1.COc1ccc2[n-]c([S@@+]([O-])Cc3ncc(C)c(OC)c3C)nc2c1.[Mg+2]` [Experiment 2-1b, (S)-omeprazole magnesium] to `COc1ccc2[n-]c([S+]([O-])Cc3ncc(C)c(OC)c3C)nc2c1.COc1ccc2[n-]c([S+]([O-])Cc3ncc(C)c(OC)c3C)nc2c1.[Mg+2]` (stereo not shown) [Experiment 1-2b, Omeprazole magnesium], the “degradation products (HPLC)” value falls from 0.3 area % to 0.2 area %.

In the case of `COc1ccc2[n-]c([S+]([O-])Cc3ncc(C)c(OC)c3C)nc2c1.COc1ccc2[n-]c([S+]([O-])Cc3ncc(C)c(OC)c3C)nc2c1.[Mg+2]` (stereo not shown) [Experiment 1-3a, Omeprazole magnesium], the “degradation products (HPLC)” value is reported as 0.4 area %.
With `COc1ccc2[n-]c([S+]([O-])Cc3ncc(C)c(OC)c3C)nc2c1.COc1ccc2[n-]c([S+]([O-])Cc3ncc(C)c(OC)c3C)nc2c1.[Mg+2]` (stereo not shown) [Experiment 1-1a, Omeprazole magnesium] the “degradation products (HPLC)” value was 0.5 area %.
In the case of `COc1ccc2[n-]c([S+]([O-])Cc3ncc(C)c(OC)c3C)nc2c1.COc1ccc2[n-]c([S+]([O-])Cc3ncc(C)c(OC)c3C)nc2c1.[Mg+2]` (stereo not shown) [Experiment 1-4b, Omeprazole magnesium], the “degradation products (HPLC)” value is reported as 0.1 area %.
In the case of `COc1ccc2[n-]c([S+]([O-])Cc3ncc(C)c(OC)c3C)nc2c1.COc1ccc2[n-]c([S+]([O-])Cc3ncc(C)c(OC)c3C)nc2c1.[Mg+2]` (stereo not shown) [Experiment 1-1b, Omeprazole magnesium], the “degradation products (HPLC)” value is reported as 0.2 area %.

Source: patent US6596315B1, “Method of producing drug particles” (AstraZeneca AB, priority 1998, dated 2003)
